Here are results for two compounds from patent US7365194B2 (Pondicherry University and Department of Biotechnology, priority 2004, dated 2008).

One may read the MIC as the lowest concentration that inhibits growth of the organism.

The subject of one assay is phytopathogens. As to conditions: in vitro, complete ionization to an inactive carboxylate ion; cited from earlier work.
In the next assay the test system is cell lines. Nature of the assay: MTT cytotoxicity assay. The assay is classed as cell-based. Set-up: dose or concentration left out as unconfirmed. The settings on record: average of three replicates. The method, then: At the end of incubation, 20 μL MTT (5 mg/mL) was added and cells were incubated at 37° C. After 4 hr, MTT was removed and 100 μL of DMSO was added. Cell viability was determined by measuring the absorbance at a test wavelength of 570 nm.
Cytotoxycity of dimer of phenazine-1-carboxylic acid natural product against cell lines was determined by MTT assay. […] At the end of incubation, 20 μL MTT (5 mg/mL) was added and cells were incubated at 37° C. After 4 hr, MTT was removed and 100 μL of DMSO was added. Cell viability was determined by measuring the absorbance at a test wavelength of 570 nm.
A general note: Tetrazolium assays rely on reduction of a dye to a coloured formazan, in cell work by metabolically active cells.

The subject of assay [1] is plant, animal and human pathogens. As to the kind of experiment: Antimicrobial activity in acidic and alkaline pH. The assay is classed as cell-based. The settings on record: in vitro. The method, then: (§1) Assay plates were incubated at 28° C. for 3 days to observe the zone of growth-inhibition of test microorganisms.
(§2) Test compound was dissolved in chloroform at various concentrations, separately loaded on to sterile filter paper discs (Whatman No.1, 6 mm diameter) and placed on the surface of agar plates pre-inoculated with the test pathogens. Assay plates were incubated at 27° C. for 72 hr for fungi and 27° C. to about 37° C. for 48 hr for bacteria.

A further assay relates to Escherichia coli. As to the kind of experiment: Antimicrobial MIC, agar/disc diffusion. The assay is classed as cell-based. The settings on record: 27° C. to about 37° C. for 48 hr. The procedure:
as §1, §2
On the technique in general: A growth-free zone around the sample is the usual read-out of agar diffusion tests.

A further assay deals with C. capsici. Nature of the assay: Antimicrobial MIC, agar/disc diffusion. The assay is classed as cell-based. As to conditions: 27° C. for 72 hr. The method, then: as §1, §2
For another assay, the system named is Salmonella typhimurium. Nature of the assay: Antimicrobial MIC, agar/disc diffusion. The assay is classed as cell-based. As to conditions: 27° C. to about 37° C. for 48 hr. The procedure: as §1, §2
In a further assay the test system is Rhizoctonia solani. As to the kind of experiment: Antimicrobial MIC, agar/disc diffusion. The assay is classed as cell-based. As to conditions: 27° C. for 72 hr. The procedure:
as §1, §2

Assay [2] relates to Colletotrichum gleosporoides. Nature of the assay: Antimicrobial MIC, agar/disc diffusion. The assay is classed as cell-based. The settings on record: 27° C. for 72 hr. The method, then:
as §1, §2

In the next assay the test system is Staphylococcus aureus. As to the kind of experiment: Antimicrobial MIC, agar/disc diffusion. As to conditions: 27° C. to about 37° C. for 48 hr. The assay is classed as cell-based. The procedure:
as §1, §2

For assay [3], the system named is Fusarium oxysporum sub sp. cubense. As to the kind of experiment: Antimicrobial MIC, agar/disc diffusion. The assay is classed as cell-based. The settings on record: 27° C. for 72 hr. The procedure: as §1, §2
The subject of a further assay is Macrophomina phaeseolina. Nature of the assay: Antimicrobial MIC, agar/disc diffusion. The assay is classed as cell-based. As to conditions: 27° C. for 72 hr. The procedure: as §1, §2
A further assay concerns Pseudomonas aeruginosa. Nature of the assay: Antimicrobial MIC, agar/disc diffusion. The assay is classed as cell-based. The settings on record: 27° C. to about 37° C. for 48 hr. The method, then:
as §1, §2

The test system of the next assay is Botrytis cinera. Nature of the assay: Antimicrobial MIC, agar/disc diffusion. The assay is classed as cell-based. The settings on record: 27° C. for 72 hr. The procedure: as §1, §2
The next assay concerns Sarocladium oryzae. Nature of the assay: Antimicrobial MIC, agar/disc diffusion. The assay is classed as cell-based. The settings on record: 27° C. for 72 hr. The method, then: as §1, §2
The next assay concerns C. falcatum. As to the kind of experiment: Antimicrobial MIC, agar/disc diffusion. The settings on record: 27° C. for 72 hr. The assay is classed as cell-based. The procedure:
as §1, §2

Bounds are passed on as bounds.

As to `O=C(O)c1cccc2nc3ccccc3nc12` [PCA, phenazine 1-carboxylic acid], the “effectiveness in alkaline pH” value in the assay on phytopathogens is “ineffective”.
Take dimer of phenazine-1-carboxylic acid: the “OD @ 570 nm” value was found to be 0.531 with cell lines (concentration 1, 24 hr at 37° C.); 0.472 in the assay with cell lines (concentration 10, 24 hr at 37° C.); 0.366 with cell lines (concentration 25, 24 hr at 37° C.); 0.285 in the assay with cell lines (concentration 50, 24 hr at 37° C.). Also, the antimicrobial activity result in assay [1] is on record as “showed antimicrobial activity”. Besides, the MIC against Escherichia coli was >100 µg/mL; in the assay with C. capsici, 7 µg/mL; against Salmonella typhimurium, >120 µg/mL; in the assay on Rhizoctonia solani, 2 µg/mL; in assay [2], 7 µg/mL; in the assay on Staphylococcus aureus, >120 µg/mL. Moreover, the MIC in [3] was 7 µg/mL; with Macrophomina phaeseolina, 12 µg/mL; in the assay on Pseudomonas aeruginosa, >90 µg/mL; against Botrytis cinera, 14 µg/mL; in the assay on Sarocladium oryzae it was 3 µg/mL; against C. falcatum, 5 µg/mL.
